Laboratory results as given in patent US10183950B2, “Thienopyrimidine inhibitors of atypical protein kinase C” (Cancer Research Technology Limited, priority 2011, dated 2019).

Target: T1, kinase-domain human PKCι (Homo sapiens, UniProt P41743)
T1 construct: Recombinant, kinase-domain human PKCι is expressed and purified in-house; made in house
T1 sequence (P41743 254-522 limits assumed): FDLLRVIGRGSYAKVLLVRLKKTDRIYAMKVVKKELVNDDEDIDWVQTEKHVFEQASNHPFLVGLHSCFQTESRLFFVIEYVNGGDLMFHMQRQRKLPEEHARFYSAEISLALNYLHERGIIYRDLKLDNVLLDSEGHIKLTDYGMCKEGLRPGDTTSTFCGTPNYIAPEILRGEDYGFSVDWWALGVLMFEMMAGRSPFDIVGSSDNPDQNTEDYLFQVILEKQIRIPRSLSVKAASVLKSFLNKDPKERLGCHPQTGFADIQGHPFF
Assay: PKCι IC50 IMAP fluorescence polarisation assay, kinase-domain enzyme
Type: biochemical
Conditions: kinase domain PKCi at 2 μM ATP; read-out: IC50 in IMAP assay against kinase domain PKCi

Question: NCCNc1nc(-c2ccncc2)nc2c1sc1ncccc12 [compound 375, N*1*-(2-Pyridin-4-yl-pyrido[3′,2′:4,5]thieno[3,2-d]pyrimidin-4-yl)-ethane-1,2-diamine] was tested. Which IC50 did it give?
Answer: The IC50 was 1 to 10 µM.

Question: Cc1csc2c(NC[C@@H](C)N)nc(-c3ccncc3)nc12 [compound 369, (R)-N*1*-(7-Methyl-2-pyridin-4-yl-thieno[3,2-d]pyrimidin-4-yl)-propane-1,2-diamine] was tested. Which IC50 did it give?
Answer: Its IC50 is 1 to 10 µM.

Question: How did the IC50 turn out when CC(C)(C)c1ccc(-c2cc3nc(-c4ccncc4)nc(N4CCCNCC4)c3s2)cc1 [compound 356, 6-(4-tert-butyl-phenyl)-4-[1,4]diazepan-1-yl-2-pyridin-4-yl-thieno[3,2-d]pyrimidine] was run?
Answer: The IC50 was 10 to 40 µM.

Question: C[C@@H](N)CNc1nc(-c2ccncc2)nc2cc(C(C)(C)C)sc12 [compound 308, (R)-N*1*-(6-tert-Butyl-2-pyridin-4-yl-thieno[3,2-d]pyrimidin-4-yl)-propane-1,2-diamine] was tested. Which IC50 did it give?
Answer: The IC50 was 10 to 40 µM.

Question: How did the IC50 turn out when C[C@H](N)CNc1nc(-c2ccncc2)nc2cc(-c3ccccc3)sc12 [compound 367, (S)-N*1*-(6-Phenyl-2-pyridin-4-yl-thieno[3,2-d]pyrimidin-4-yl)-propane-1,2-diamine] was run?
Answer: The IC50 was 10 to 40 µM.

Same assay, conditions: kinase domain PKCi at 2 μM ATP; read-out: IC50 in IMAP assay against kinase domain PKCi (Activity)

Question: c1cc(-c2nc(N3C[C@@H]4C[C@H]3CN4)c3c4c(sc3n2)CCCC4)ccn1 [compound 18, 4-(1S,4S)-2,5-Diaza-bicyclo[2.2.1]hept-2-yl-2-pyridin-4-yl-5,6,7,8-tetrahydro-benzo[4,5]thieno[2,3-d]pyrimidine] was tested. Which IC50 did it give?
Answer: Its IC50 is 0.1 to 1 µM.

Question: c1cc(-c2nc(N3CCCNCC3)c3c4c(sc3n2)CCCCC4)ccn1 [compound 86, 4-[1,4]Diazepan-1-yl-2-pyridin-4-yl-6,7,8,9-tetrahydro-5H-10-thia-1,3-diaza-benzo[a]azulene] was tested. Which IC50 did it give?
Answer: Its IC50 is 0.1 to 1 µM.

Question: Which IC50 does the source give for N[C@H](COc1nc(-c2ccncc2)nc2sc3c(c12)CCCC3)Cc1ccc(Br)cc1 [compound 171, (S)-1-(4-Bromo-benzyl)-2-(2-pyridin-4-yl-5,6,7,8-tetrahydro-benzo[4,5]thieno[2,3-d]pyrimidin-4-yloxy)-ethylamine] here?
Answer: Its IC50 is 1 to 10 µM.

Question: For CN1CCN(c2nc(-c3ccncc3)nc3sc4c(c23)CCCC4)CC1 [compound 125, 4-(4-Methyl-piperazin-1-yl)-2-pyridin-4-yl-5,6,7,8-tetrahydro-benzo[4,5]thieno[2,3-d]pyrimidine], which IC50 is on record?
Answer: Its IC50 is 1 to 10 µM.

Question: Which IC50 does the source give for N[C@H](COc1nc(-c2ccncc2)nc2sc3c(c12)CCCC3)C1CCCCC1 [compound 156, (S)-1-cyclohexyl-2-(2-pyridin-4-yl-5,6,7,8-tetrahydro-benzo[4,5]thieno[2,3-d]pyrimidin-4-yloxy)-ethylamine] here?
Answer: The IC50 was 1 to 10 µM.

Question: NCCNc1nc(-c2cn[nH]c2)nc2sc3c(c12)CCCC3 [compound 181, N*1*-[2-(1H-Pyrazol-4-yl)-5,6,7,8-tetrahydro-benzo[4,5]thieno[2,3-d]pyrimidin-4-yl]-ethane-1,2-diamine] was tested. Which IC50 did it give?
Answer: Its IC50 is 0.1 to 1 µM.

Question: With c1cc(-c2nc(N[C@H]3CCNC3)c3c4c(sc3n2)CCCC4)ccn1 [compound 20, (2-Pyridin-4-yl-5,6,7,8-tetrahydro-benzo[4,5]thieno[2,3-d]pyrimidin-4-yl)-(S)-pyrrolidin-3-yl-amine] as the compound, how does the IC50 read?
Answer: The IC50 was 1 to 10 µM.

Question: Which IC50 does the source give for Clc1ccc(CN2CCN(c3nc(-c4ccncc4)nc4sc5c(c34)CCCC5)CC2)cc1 [compound 122, 4-[4-(4-Chloro-benzyl)-piperazin-1-yl]-2-pyridin-4-yl-5,6,7,8-tetrahydro-benzo[4,5]thieno[2,3-d]pyrimidine] here?
Answer: The IC50 was 10 to 40 µM.

Question: With CN(C)CCNc1nc(-c2ccncc2)nc2sc3c(c12)CCCC3 [compound 1, N,N-dimethyl-N′-(2-pyridin-4-yl-5,6,7,8-tetrahydro-benzo[4,5]thieno[2,3-d]pyrimidin-4-yl)-ethane-1,2-diamine] as the compound, how does the IC50 read?
Answer: The IC50 was 1 to 10 µM.

Question: How did the IC50 turn out when N[C@H](COc1nc(-c2ccncc2)nc2sc3c(c12)CCCC3)Cc1ccccc1F [compound 164, (S)-1-(2-Fluoro-benzyl)-2-(2-pyridin-4-yl-5,6,7,8-tetrahydro-benzo[4,5]thieno[2,3-d]pyrimidin-4-yloxy)-ethylamine] was run?
Answer: The IC50 was 1 to 10 µM.

Question: Which IC50 does the source give for N[C@H](CNc1nc(-c2ccncc2)nc2sc3c(c12)CCCCC3)Cc1ccccc1 [compound 87, (S)-3-Phenyl-N*1*-(2-pyridin-4-yl-6,7,8,9-tetrahydro-5H-10-thia-1,3-diaza-benzo[a]azulen-4-yl)-propane-1,2-diamine] here?
Answer: Its IC50 is 0.1 to 1 µM.

Question: With Cc1sc2nc(-c3ccncc3)nc(NCCN)c2c1C [compound 36, N*1*-(5,6-Dimethyl-2-pyridin-4-yl-thieno[2,3-d]pyrimidin-4-yl)-ethane-1,2-diamine] as the compound, how does the IC50 read?
Answer: The IC50 was 0.1 to 1 µM.

Question: Which IC50 does the source give for N[C@H](COc1nc(-c2ccncc2)nc2sc3c(c12)CCCC3)Cc1ccc2ccccc2c1 [compound 160, (S)-1-Naphthalen-2-ylmethyl-2-(2-pyridin-4-yl-5,6,7,8-tetrahydro-benzo[4,5]thieno[2,3-d]pyrimidin-4-yloxy)-ethylamine] here?
Answer: Its IC50 is 10 to 40 µM.

Question: With Cc1n[nH]c(C)c1-c1nc(N[C@@H]2CCNC2)c2c3c(sc2n1)CCCC3 [compound 194, [2-(3,5-Dimethyl-1H-pyrazol-4-yl)-5,6,7,8-tetrahydro-benzo[4,5]thieno[2,3-d]pyrimidin-4-yl]-(R)-pyrrolidin-3-yl-amine] as the compound, how does the IC50 read?
Answer: Its IC50 is 0.1 to 1 µM.

Question: How did the IC50 turn out when CC[C@H](N)CNc1nc(-c2ccncc2)nc2sc3c(c12)CCCC3 [compound 68, (S)-N*1*-(2-Pyridin-4-yl-5,6,7,8-tetrahydro-benzo[4,5]thieno[2,3-d]pyrimidin-4-yl)-butane-1,2-diamine] was run?
Answer: Its IC50 is 1 to 10 µM.

Question: With Clc1ccccc1CN1CCN(c2nc(-c3ccncc3)nc3sc4c(c23)CCCC4)CC1 [compound 123, 4-[4-(2-Chloro-benzyl)-piperazin-1-yl]-2-pyridin-4-yl-5,6,7,8-tetrahydro-benzo[4,5]thieno[2,3-d]pyrimidine] as the compound, how does the IC50 read?
Answer: The IC50 was 10 to 40 µM.

Question: For N[C@H](COc1nc(-c2ccncc2)nc2sc3c(c12)CCCC3)Cc1ccc(F)cc1 [compound 162, (S)-1-(4-Fluoro-benzyl)-2-(2-pyridin-4-yl-5,6,7,8-tetrahydro-benzo[4,5]thieno[2,3-d]pyrimidin-4-yloxy)-ethylamine], which IC50 is on record?
Answer: The IC50 was 10 to 40 µM.

Question: How did the IC50 turn out when N[C@@H](COc1nc(-c2ccncc2)nc2sc3c(c12)CCCC3)Cc1csc2ccccc12 [compound 176, (R)-1-Benzo[b]thiophen-3-ylmethyl-2-(2-pyridin-4-yl-5,6,7,8-tetrahydro-benzo[4,5]thieno[2,3-d]pyrimidin-4-yloxy)-ethylamine] was run?
Answer: Its IC50 is 10 to 40 µM.

Question: With N[C@H](COc1nc(-c2ccncc2)nc2sc3c(c12)CCCC3)Cc1c[nH]cn1 [compound 175, (S)-1-(1H-Imidazol-4-ylmethyl)-2-(2-pyridin-4-yl-5,6,7,8-tetrahydro-benzo[4,5]thieno[2,3-d]pyrimidin-4-yloxy)-ethylamine] as the compound, how does the IC50 read?
Answer: The IC50 was 10 to 40 µM.

Question: Brc1ccc(CN2CCN(c3nc(-c4ccncc4)nc4sc5c(c34)CCCC5)CC2)cn1 [compound 128, 4-[4-(6-Bromo-pyridin-3-ylmethyl)-piperazin-1-yl]-2-pyridin-4-yl-5,6,7,8-tetrahydro-benzo[4,5]thieno[2,3-d]pyrimidine] was tested. Which IC50 did it give?
Answer: The IC50 was 10 to 40 µM.

Question: Which IC50 does the source give for N[C@H](COc1nc(-c2ccncc2)nc2sc3c(c12)CCCC3)Cc1c[nH]c2ccccc12 [compound 158, (S)-2-(1H-Indol-3-yl)-1-(2-pyridin-4-yl-5,6,7,8-tetrahydro-benzo[4,5]thieno[2,3-d]pyrimidin-4-yloxymethyl)-ethylamine] here?
Answer: The IC50 was 10 to 40 µM.

Question: How did the IC50 turn out when N[C@H](CCc1ccccc1)COc1nc(-c2ccncc2)nc2sc3c(c12)CCCC3 [compound 167, (R)-3-Phenyl-1-(2-pyridin-4-yl-5,6,7,8-tetrahydro-benzo[4,5]thieno[2,3-d]pyrimidin-4-yloxymethyl)-propylamine] was run?
Answer: Its IC50 is 10 to 40 µM.

Question: Which IC50 does the source give for N[C@H](CNc1nc(-c2cn[nH]c2)nc2sc3c(c12)CCCC3)Cc1ccccc1 [compound 183, (S)-3-Phenyl-N*1*-[2-(1H-pyrazol-4-yl)-5,6,7,8-tetrahydro-benzo[4,5]thieno[2,3-d]pyrimidin-4-yl]-propane-1,2-diamine] here?
Answer: Its IC50 is 0.1 to 1 µM.

Question: Which IC50 does the source give for c1cc(-c2nc(OC3CCCNC3)c3c4c(sc3n2)CCCC4)ccn1 (stereo not shown) [compound 141, 4-(Piperidin-3-yloxy)-2-pyridin-4-yl-5,6,7,8-tetrahydro-benzo[4,5]thieno[2,3-d]pyrimidine] here?
Answer: Its IC50 is 1 to 10 µM.

Question: N[C@H](CNc1nc(-c2ccncc2)nc2sc3c(c12)CCCCCC3)Cc1ccccc1 [compound 76, (S)-3-Phenyl-N*1*-(2-pyridin-4-yl-5,6,7,8,9,10-hexahydro-11-thia-1,3-diaza-cycloocta[a]inden-4-yl)-propane-1,2-diamine] was tested. Which IC50 did it give?
Answer: Its IC50 is 0.1 to 1 µM.

Question: With c1cc(-c2nc(N3CCNCC3)c3c4c(sc3n2)CCCCC4)ccn1 [compound 85, 4-Piperazin-1-yl-2-pyridin-4-yl-6,7,8,9-tetrahydro-5H-10-thia-1,3-diaza-benzo[a]azulene] as the compound, how does the IC50 read?
Answer: Its IC50 is 0.1 to 1 µM.

Question: Which IC50 does the source give for COc1cccc(C[C@H](N)COc2nc(-c3ccncc3)nc3sc4c(c23)CCCC4)c1 [compound 180, (S)-1-(3-Methoxy-benzyl)-2-(2-pyridin-4-yl-5,6,7,8-tetrahydro-benzo[4,5]thieno[2,3-d]pyrimidin-4-yloxy)-ethylamine] here?
Answer: The IC50 was 1 to 10 µM.

Question: Which IC50 does the source give for CC(C)C[C@H](N)COc1nc(-c2ccncc2)nc2sc3c(c12)CCCC3 [compound 138, (S)-3-Methyl-1-(2-pyridin-4-yl-5,6,7,8-tetrahydro-benzo[4,5]thieno[2,3-d]pyrimidin-4-yloxymethyl)-butylamine] here?
Answer: Its IC50 is 1 to 10 µM.

Question: How did the IC50 turn out when Brc1ccc(CN2CCN(c3nc(-c4ccncc4)nc4sc5c(c34)CCCC5)CC2)cc1 [compound 117, 4-[4-(4-Bromo-benzyl)-piperazin-1-yl]-2-pyridin-4-yl-5,6,7,8-tetrahydro-benzo[4,5]thieno[2,3-d]pyrimidine] was run?
Answer: Its IC50 is 10 to 40 µM.
